IC50 data for 3 compounds are collected here from patent US7893074B2, “2, 4-pyrimidinediamines useful in the treatment of neoplastic diseases, inflammatory and immune system disorders” (Novartis AG, priority 2003, dated 2011).

The test system of assay [1] is human NPM-ALK overexpressing murine BaF3 cells. Description: Growth inhibition of BaF3-NPM-ALK cells (Yopro staining). Type of assay: cell-based. The conditions noted are these: Mus musculus, 48 h; two days incubation. An excerpt:
The expression of NPM-ALK is achieved by transfecting the BaF3 cell line with an expression vector pCIneo™ (Promega Corp., Madison Wis., USA) coding for NPM-ALK and subsequent selection of G418 resistant cells. Non-transfected BaF3 cells depend on IL-3 for cell survival. In contrast NPM-ALK expressing BaF3 cells (named BaF3-NPM-ALK hereinafter) can proliferate in the absence of IL-3 because they obtain proliferative signal through NPM-ALK kinase. Putative inhibitors of the NPM-ALK kinase therefore abolish the growth signal and result in antiproliferative activity. […] The inhibitory activity of the compounds of formula I is determined, briefly, as follows: BaF3-NPM-ALK cells (15,000/microtitre plate well) are transferred to 96-well microtitre plates. […] The growth of the BaF3-NPM-ALK cells is measured by means of Yopro™ staining [T Idziorek et al. J. Immunol. […] Cell lysis is completed within 60 min at room temperature and total amount of Yopro bound to DNA is determined by measurement using the Cytofluor II 96-well reader (PerSeptive Biosystems) with the following settings: Excitation (nm) 485/20 and Emission (nm) 530/25. IC50 values are determined by a computer-aided system using the formula: IC50=[(ABStest−ABSstart)/(ABScontrol−ABSstart)]×100. […]

The target of a further assay is IGF-IR (Homo sapiens, UniProt P08069). As to the kind of experiment: Cellular Capture ELISA of IGF-I induced autophosphorylation of the IGF-IR. In kind it is cell-based. The conditions noted are these: read-out: IGF-1R IC50. As for the experimental part:
In this assay the activity of the compounds of the invention against Insulin-like growth factor I (IGF-I) induced autophosphorylation of the IGF-IR is determined.

For another assay, the target named is FAK (Mus musculus, UniProt P34152). Description: Phos IC50 (phosphorylation). In kind it is cell-based.
Chain of FAK (P34152 2-1052): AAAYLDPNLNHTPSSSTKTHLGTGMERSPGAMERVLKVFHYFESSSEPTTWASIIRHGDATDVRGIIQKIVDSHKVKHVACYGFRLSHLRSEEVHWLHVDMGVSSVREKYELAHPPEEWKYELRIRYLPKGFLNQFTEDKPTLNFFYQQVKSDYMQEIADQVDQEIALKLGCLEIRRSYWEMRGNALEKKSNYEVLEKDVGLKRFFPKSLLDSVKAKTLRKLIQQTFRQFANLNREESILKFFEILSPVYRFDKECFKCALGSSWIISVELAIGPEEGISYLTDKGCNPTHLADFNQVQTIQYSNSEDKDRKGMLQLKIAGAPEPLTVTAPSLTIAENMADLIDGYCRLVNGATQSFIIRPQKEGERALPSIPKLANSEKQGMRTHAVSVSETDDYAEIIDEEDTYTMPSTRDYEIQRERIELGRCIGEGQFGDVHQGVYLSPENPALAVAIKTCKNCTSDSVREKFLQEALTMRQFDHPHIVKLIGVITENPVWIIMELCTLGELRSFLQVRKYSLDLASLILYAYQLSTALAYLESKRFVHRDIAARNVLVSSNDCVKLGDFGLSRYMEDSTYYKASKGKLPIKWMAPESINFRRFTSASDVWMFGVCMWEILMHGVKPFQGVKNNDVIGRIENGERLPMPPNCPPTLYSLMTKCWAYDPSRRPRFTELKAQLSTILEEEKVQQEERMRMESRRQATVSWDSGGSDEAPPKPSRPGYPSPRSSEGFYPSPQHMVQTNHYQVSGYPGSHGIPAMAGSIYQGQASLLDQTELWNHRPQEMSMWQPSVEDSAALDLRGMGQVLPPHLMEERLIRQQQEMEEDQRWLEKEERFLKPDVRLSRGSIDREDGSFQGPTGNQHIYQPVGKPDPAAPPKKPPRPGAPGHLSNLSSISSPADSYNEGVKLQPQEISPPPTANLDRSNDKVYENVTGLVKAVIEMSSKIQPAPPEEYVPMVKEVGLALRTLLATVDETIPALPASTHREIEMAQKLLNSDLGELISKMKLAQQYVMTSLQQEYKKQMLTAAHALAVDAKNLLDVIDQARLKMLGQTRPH
In assay [2] the test system is Mouse mammary carcinoma 4T1 cells. As to the kind of experiment: Anchorage-independent tumor cell growth assay. In kind it is cell-based. The conditions noted are these: Mus musculus, 4T1. As for the experimental part:
Cells are cultured for 2 h and inhibitors are added at various concentrations in a final concentration of 0.1% DMSO. After 48 h, cell growth is assayed with the cell counting kit-8 (Wako Pure Chemical), which uses a water soluble tetrazolium salt WST8. Twenty μL of the reagent is added into each well and cells are further cultured for 2 h. The optical density is measured at 450 nm.

Assay [3] concerns the target Focal Adhesion Kinase (FAK) (Homo sapiens, UniProt Q05397). As to the kind of experiment: FAK assay system (Focal Adhesion Kinase inhibition). In kind it is biochemical. The conditions noted are these: read-out: FAK IC50.
The target of assay [4] is GST-ALK protein tyrosine kinase (Homo sapiens, UniProt Q9UM73). As to the kind of experiment: In vitro enzyme assay using GST-ALK protein tyrosine kinase (filter binding assay). Type of assay: biochemical. The conditions noted are these: b80; assay not specified further; lower end printed as <0.5; read-out: IC50, inhibition of tyrosine kinase activity of anaplastic lymphoma kinase (ALK). As for the experimental part: Assays are incubated for 10 min at ambient temperature. […] Following washing (0.5% H3PO4), plates are counted in a liquid scintillation counter. IC50 values are calculated by linear regression analysis of the percentage inhibition.
Chain of GST-ALK protein tyrosine kinase (Q9UM73 1116-1392): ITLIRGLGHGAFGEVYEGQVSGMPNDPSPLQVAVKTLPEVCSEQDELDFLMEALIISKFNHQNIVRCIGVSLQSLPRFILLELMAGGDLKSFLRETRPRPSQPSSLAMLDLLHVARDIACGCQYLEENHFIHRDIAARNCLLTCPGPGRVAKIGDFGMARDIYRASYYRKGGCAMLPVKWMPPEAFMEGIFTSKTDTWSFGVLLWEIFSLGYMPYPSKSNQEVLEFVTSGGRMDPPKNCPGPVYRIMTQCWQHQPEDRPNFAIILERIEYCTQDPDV

The structures appear in SMILES notation.

Chain of IGF-IR (P08069 31-1367): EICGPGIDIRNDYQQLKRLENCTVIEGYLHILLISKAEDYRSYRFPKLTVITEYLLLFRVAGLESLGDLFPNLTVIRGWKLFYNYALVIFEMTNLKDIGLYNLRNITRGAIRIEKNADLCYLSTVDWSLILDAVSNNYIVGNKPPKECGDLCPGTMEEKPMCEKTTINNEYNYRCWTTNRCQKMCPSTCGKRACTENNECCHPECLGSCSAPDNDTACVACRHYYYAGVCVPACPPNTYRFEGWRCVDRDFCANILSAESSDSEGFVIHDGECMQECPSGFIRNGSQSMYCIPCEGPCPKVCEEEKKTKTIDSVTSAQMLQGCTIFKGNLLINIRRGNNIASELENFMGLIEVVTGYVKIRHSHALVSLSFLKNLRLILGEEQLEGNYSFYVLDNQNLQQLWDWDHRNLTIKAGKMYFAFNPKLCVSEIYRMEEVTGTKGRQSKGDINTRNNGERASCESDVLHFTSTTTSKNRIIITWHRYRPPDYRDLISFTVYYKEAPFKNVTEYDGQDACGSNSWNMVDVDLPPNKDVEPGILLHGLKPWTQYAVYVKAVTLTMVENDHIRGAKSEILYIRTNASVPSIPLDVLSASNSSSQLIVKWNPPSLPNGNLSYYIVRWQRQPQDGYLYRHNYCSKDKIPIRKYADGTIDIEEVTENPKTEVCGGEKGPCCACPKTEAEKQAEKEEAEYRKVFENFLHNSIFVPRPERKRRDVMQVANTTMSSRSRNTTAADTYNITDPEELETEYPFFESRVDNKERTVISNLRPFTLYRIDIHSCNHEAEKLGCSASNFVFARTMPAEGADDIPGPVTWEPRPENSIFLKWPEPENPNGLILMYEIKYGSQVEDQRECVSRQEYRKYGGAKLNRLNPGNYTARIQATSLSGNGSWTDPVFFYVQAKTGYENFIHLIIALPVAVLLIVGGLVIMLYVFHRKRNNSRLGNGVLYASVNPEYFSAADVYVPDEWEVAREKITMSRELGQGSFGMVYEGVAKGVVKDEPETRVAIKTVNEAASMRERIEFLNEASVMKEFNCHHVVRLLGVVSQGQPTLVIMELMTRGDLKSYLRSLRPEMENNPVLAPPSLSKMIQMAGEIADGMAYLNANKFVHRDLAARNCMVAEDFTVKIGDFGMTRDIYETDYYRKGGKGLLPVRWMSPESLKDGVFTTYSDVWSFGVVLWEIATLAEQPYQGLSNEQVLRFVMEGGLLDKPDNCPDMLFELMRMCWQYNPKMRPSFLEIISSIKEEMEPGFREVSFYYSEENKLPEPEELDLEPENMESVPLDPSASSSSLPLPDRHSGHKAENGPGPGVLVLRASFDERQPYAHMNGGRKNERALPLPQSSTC
Chain of Focal Adhesion Kinase (FAK) (Q05397 384-706): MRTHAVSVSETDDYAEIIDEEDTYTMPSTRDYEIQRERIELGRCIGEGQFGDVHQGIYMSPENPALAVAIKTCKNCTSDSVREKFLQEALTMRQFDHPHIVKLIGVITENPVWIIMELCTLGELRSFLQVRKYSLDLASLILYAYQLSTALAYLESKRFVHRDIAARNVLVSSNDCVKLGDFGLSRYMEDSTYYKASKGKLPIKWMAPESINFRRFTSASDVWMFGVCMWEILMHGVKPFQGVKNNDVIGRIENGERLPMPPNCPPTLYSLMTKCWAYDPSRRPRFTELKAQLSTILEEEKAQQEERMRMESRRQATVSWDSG

Take `CNC(=O)c1ccccc1Nc1nc(Nc2ccc(N3CCOCC3)cc2OC)ncc1Cl` [2-[5-chloro-2-(2-methoxy-4-morpholin-4-yl-phenylamino)-pyrimidin-4-ylamino]-N-methyl-benzamide]: half-maximal inhibition in assay [1] (IC50) was put at 97 nM.
Take `CCCS(=O)(=O)c1ccccc1Nc1nc(Nc2ccc(N3CCC(N4CCCCC4)CC3)cc2OC)ncc1Cl` [Example 26-3]: the half-maximal inhibitory concentration (IC50) (in general, the concentration that inhibits the measured activity by half) at IGF-IR is 230 nM; at FAK it was 100 nM; in assay [2], 130 nM; in assay [3] it was 1.4 nM; in assay [4], 0.5 to 200 nM.
Consider `CNC(=O)c1ccccc1Nc1nc(Nc2ccc(N3CCN4CCOC[C@H]4C3)cc2OC)ncc1Cl` [Example 7-15], for which the half-inhibitory concentration (IC50) was 260 nM at IGF-IR; 60 nM against FAK; 190 nM in assay [2]; 4.5 nM in assay [3]; 0.5 to 200 nM in assay [4].
